Experimental data from ChEMBL document CHEMBL4602715, “Efficacy and Tolerability of Pyrazolo[1,5-a]pyrimidine RET Kinase Inhibitors for the Treatment of Lung Adenocarcinoma” (ACS Med Chem Lett, 2020).
Values after ≈ are worked out from the molar mass of the structure shown. Active and inactive are the calls of the source. No cut-off for these calls is given here.

Key:
LC-2-ad = assay: Cytotoxicity against human LC2/ad cells assessed as reduction in cell viability incubated for 6 days by CellTiter Glo assay; type: cell-based; details: 144 h
[1] = Aqueous solubility of compound at pH 6.8 incubated for 24 hrs by HPLC/UV analysis; type: physicochemical
[2] = Drug uptake in tumor of Harlan Foxn1 nude mouse xenografted with rat RIE cells transfected with KIF5B/RET at 3 to 30 mg/kg, po administered bid for 8 days by LC-MS/MS analysis; type: ADME, organism-based, Neoplasm; details: in vivo, 192 h
[3] = Drug uptake in plasma of Harlan Foxn1 nude mouse xenografted with rat RIE cells transfected with KIF5B/RET at 3 to 30 mg/kg, po administered bid for 8 days by LC-MS/MS analysis; type: ADME, organism-based; details: in vivo, 192 h
[4] = Oral bioavailability in BALB/c mouse at 20 mg/kg measured upto 24 hrs by LC-MS/MS analysis; type: ADME, organism-based; details: in vivo
[5] = AUC in BALB/c mouse at 20 mg/kg, po measured upto 24 hrs by LC-MS/MS analysis; type: ADME, organism-based; set-up: dose 20 mg/kg, time < 24 hr, route oral; details: in vivo
[6] = Cmax in BALB/c mouse at 20 mg/kg, po measured upto 24 hrs by LC-MS/MS analysis; type: ADME, organism-based; set-up: dose 20 mg/kg, route oral; details: in vivo
[7] = Half life in BALB/c mouse at 20 mg/kg, po measured upto 24 hrs by LC-MS/MS analysis; type: ADME, organism-based; details: in vivo
[8] = AUC in BALB/c mouse at 5 mg/kg, iv measured upto 24 hrs by LC-MS/MS analysis; type: ADME, organism-based; set-up: dose 5 mg/kg, time < 24 hr, route intravenous; details: in vivo
[9] = Cmax in BALB/c mouse at 5 mg/kg, iv measured upto 24 hrs by LC-MS/MS analysis; type: ADME, organism-based; set-up: dose 5 mg/kg, route intravenous; details: in vivo
[10] = Half life in BALB/c mouse at 5 mg/kg, iv measured upto 24 hrs by LC-MS/MS analysis; type: ADME, organism-based; details: in vivo
[11] = Clearance in BALB/c mouse at 5 mg/kg, iv measured upto 24 hrs by LC-MS/MS analysis; type: ADME, organism-based; details: in vivo
[12] = Volume of distribution at steady state in BALB/c mouse at 5 mg/kg, iv measured upto 24 hrs by LC-MS/MS analysis; type: ADME, organism-based; details: in vivo, read-out: Vdss
[13] = Ratio of AUC in BALB/c mouse brain to plasma at 20 mg/kg, po measured upto 24 hrs by LC-MS/MS analysis; type: ADME, organism-based; details: brain and plasma
[14] = Ratio of Cmax in BALB/c mouse brain to plasma at 20 mg/kg, po measured upto 24 hrs by LC-MS/MS analysis; type: ADME, organism-based; details: brain and plasma
[15] = biological target: T1, Voltage-gated inwardly rectifying potassium channel KCNH2 (Homo sapiens, UniProt Q12809); assay: Displacement of [3H]-dofetilide from human ERG expressed in CHO cells incubated for 90 mins by microbeta scintillation counting method; type: cell-based
T1 sequence (Q12809 whole entry): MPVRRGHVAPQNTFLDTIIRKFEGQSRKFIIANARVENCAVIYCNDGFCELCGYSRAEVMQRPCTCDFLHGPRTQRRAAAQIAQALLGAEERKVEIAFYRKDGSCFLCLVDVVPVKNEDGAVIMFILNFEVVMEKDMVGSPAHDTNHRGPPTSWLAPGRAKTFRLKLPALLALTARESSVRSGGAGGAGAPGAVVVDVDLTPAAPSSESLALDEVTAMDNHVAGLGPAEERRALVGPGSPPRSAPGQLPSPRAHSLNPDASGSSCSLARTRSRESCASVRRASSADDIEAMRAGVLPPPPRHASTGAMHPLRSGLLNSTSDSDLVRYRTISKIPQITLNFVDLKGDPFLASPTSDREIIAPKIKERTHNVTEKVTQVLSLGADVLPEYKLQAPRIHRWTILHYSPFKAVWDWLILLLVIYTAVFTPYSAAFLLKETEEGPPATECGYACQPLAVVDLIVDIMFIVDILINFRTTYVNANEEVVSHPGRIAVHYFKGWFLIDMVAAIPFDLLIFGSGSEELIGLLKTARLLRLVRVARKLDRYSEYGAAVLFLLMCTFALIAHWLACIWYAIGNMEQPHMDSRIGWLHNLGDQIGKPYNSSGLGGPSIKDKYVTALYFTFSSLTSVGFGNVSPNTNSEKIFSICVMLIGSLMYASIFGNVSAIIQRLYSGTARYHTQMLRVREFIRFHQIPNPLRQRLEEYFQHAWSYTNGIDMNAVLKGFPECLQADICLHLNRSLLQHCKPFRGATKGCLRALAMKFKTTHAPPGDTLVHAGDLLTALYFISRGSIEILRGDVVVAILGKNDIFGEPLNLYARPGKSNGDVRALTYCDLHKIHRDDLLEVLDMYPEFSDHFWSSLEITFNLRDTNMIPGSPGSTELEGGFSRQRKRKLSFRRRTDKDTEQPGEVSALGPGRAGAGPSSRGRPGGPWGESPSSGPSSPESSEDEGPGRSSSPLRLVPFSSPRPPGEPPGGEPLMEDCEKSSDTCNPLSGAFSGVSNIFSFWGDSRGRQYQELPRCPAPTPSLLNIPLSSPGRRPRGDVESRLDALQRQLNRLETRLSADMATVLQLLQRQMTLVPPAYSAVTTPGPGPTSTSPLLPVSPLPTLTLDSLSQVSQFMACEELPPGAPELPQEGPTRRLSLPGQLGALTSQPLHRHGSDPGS

[16] = biological target: T1, Voltage-gated inwardly rectifying potassium channel KCNH2; assay: Inhibition of human ERG expressed in human embryonic kidney cells by manual patch clamp assay; type: cell-based
Rattus norvegicus [17] = assay: Antitumor activity against rat RIE cells transfected with KIF5B/RET xenografted in Harlan Foxn1 nude mouse assessed as tumor regression at 30 mg/kg, po administered bid for 8 days; type: functional, organism-based
Rattus norvegicus [18] = assay: Antitumor activity against rat RIE cells transfected with KIF5B/RET xenografted in Harlan Foxn1 nude mouse assessed as tumor stasis at 10 mg/kg, po administered bid for 8 days; type: functional, organism-based
Rattus norvegicus [19] = assay: Antitumor activity against rat RIE cells transfected with KIF5B/RET xenografted in Harlan Foxn1 nude mouse assessed as inhibition of tumor growth at 3 mg/kg, po administered bid for 8 days; type: functional, organism-based
Mus musculus [20] = assay: In vivo inhibition of KIF5B/RET transfected in rat RIE cells xenografted in Harlan Foxn1 nude mouse assessed as reduction in RET phosphorylation at 30 mg/kg, po administered bid for 8 days and measured on day 8 after 5 hrs of dosing by Western blot analysis; type: functional, organism-based
Mus musculus [21] = assay: In vivo inhibition of KIF5B/RET transfected in rat RIE cells xenografted in Harlan Foxn1 nude mouse assessed as reduction in RET phosphorylation at 30 mg/kg, po administered bid for 8 days and measured on day 8 after 24 hrs of dosing by Western blot analysis; type: functional, organism-based
[22] = Toxicity in Harlan Foxn1 nude mouse xenografted with rat RIE cells transfected with KIF5B/RET assessed as adverse events at 3 to 30 mg/kg, po administered bid for 8 days; type: organism-based; details: in vivo, 192 h
BaF3 = assay: Cytotoxicity against mouse BA/F3 cells assessed as reduction in cell viability incubated for 48 hrs by brightglo-luciferase reporter gene assay; type: cell-based; details: BaF3, 48 h
Bcr/Abl fusion protein = Bcr/Abl fusion protein (Homo sapiens, UniProt P00519); assay: Inhibition of BCR/ABL (unknown origin) transfected in mouse Ba/F3 cells assessed as reduction in cell viability incubated for 48 hrs by brightglo-luciferase reporter gene assay; type: cell-based, BaF3
Bcr/Abl fusion protein, sequence (P00519 whole entry, the tested form may be a part): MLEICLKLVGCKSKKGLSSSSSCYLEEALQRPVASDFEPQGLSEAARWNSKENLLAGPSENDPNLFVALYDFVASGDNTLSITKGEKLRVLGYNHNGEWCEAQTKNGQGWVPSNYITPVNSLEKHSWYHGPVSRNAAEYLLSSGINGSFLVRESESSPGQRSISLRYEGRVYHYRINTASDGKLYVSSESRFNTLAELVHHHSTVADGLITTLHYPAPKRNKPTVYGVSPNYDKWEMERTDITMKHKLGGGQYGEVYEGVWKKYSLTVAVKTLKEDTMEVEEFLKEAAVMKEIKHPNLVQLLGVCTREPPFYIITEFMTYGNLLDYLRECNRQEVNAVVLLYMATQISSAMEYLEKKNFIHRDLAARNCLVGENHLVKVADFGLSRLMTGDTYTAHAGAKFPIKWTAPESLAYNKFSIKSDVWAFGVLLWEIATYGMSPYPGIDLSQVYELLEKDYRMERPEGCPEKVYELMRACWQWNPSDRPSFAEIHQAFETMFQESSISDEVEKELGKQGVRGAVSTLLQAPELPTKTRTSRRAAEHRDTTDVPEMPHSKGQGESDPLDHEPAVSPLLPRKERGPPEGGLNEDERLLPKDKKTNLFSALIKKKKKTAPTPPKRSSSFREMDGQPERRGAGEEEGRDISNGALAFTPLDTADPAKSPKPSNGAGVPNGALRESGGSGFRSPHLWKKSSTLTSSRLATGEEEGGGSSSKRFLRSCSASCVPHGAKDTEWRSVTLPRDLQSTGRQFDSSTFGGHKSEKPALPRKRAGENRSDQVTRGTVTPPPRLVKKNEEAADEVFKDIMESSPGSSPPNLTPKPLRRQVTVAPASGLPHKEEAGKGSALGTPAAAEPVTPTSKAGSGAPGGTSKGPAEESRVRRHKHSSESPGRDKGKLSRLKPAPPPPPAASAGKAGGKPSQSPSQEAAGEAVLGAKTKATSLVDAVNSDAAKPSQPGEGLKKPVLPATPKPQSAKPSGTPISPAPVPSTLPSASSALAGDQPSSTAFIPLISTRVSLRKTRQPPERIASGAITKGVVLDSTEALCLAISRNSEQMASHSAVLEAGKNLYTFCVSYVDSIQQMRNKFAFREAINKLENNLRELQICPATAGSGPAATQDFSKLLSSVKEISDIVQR
Bcr/Abl fusion protein, sequence (P11274 whole entry, further chain, the tested form may be a part): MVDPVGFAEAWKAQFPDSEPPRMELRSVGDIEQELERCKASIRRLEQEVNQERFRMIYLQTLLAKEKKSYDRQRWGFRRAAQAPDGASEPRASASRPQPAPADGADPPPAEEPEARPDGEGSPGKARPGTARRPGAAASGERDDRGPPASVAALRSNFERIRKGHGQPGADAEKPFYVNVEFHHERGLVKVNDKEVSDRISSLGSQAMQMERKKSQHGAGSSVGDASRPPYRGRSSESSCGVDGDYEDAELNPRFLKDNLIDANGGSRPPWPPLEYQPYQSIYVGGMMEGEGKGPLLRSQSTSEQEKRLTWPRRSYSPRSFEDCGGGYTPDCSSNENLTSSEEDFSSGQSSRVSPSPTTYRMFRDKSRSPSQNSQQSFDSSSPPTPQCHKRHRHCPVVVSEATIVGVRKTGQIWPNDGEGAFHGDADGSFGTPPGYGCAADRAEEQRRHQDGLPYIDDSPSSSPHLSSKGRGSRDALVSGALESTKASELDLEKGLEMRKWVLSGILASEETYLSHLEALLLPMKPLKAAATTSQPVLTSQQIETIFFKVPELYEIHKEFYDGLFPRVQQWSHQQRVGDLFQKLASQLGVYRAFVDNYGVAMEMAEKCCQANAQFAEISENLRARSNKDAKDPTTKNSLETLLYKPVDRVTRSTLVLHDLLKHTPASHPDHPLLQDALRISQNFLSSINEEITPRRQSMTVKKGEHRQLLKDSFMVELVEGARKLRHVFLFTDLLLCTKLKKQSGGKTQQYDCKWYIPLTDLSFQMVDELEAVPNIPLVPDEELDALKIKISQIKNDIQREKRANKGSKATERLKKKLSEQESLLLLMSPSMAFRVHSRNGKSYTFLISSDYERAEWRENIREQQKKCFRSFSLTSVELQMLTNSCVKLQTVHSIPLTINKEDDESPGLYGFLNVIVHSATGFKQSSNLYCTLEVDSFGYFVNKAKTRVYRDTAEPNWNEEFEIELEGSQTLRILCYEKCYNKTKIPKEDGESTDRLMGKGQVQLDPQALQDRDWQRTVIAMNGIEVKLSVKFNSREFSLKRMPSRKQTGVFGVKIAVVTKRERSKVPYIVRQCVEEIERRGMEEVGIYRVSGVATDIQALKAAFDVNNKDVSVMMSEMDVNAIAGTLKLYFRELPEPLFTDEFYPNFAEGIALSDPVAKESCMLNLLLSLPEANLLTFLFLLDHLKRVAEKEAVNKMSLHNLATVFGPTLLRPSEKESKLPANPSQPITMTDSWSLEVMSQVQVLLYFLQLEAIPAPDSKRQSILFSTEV

[23] = Clearance in BALB/c mouse at 2 mg/kg, iv measured upto 24 hrs by LC-MS/MS analysis; type: ADME, organism-based; details: in vivo
[24] = Volume of distribution at steady state in BALB/c mouse at 2 mg/kg, iv measured upto 24 hrs by LC-MS/MS analysis; type: ADME, organism-based; details: in vivo, read-out: Vdss
[25] = Half life in BALB/c mouse at 2 mg/kg, iv measured upto 24 hrs by LC-MS/MS analysis; type: ADME, organism-based; details: in vivo
[26] = AUC in BALB/c mouse at 2 mg/kg, iv measured upto 24 hrs by LC-MS/MS analysis; type: ADME, organism-based; set-up: dose 2 mg/kg, time < 24 hr, route intravenous; details: in vivo
[27] = Cmax in BALB/c mouse at 2 mg/kg, iv measured upto 24 hrs by LC-MS/MS analysis; type: ADME, organism-based; set-up: dose 2 mg/kg, route intravenous; details: in vivo
[28] = Half life in BALB/c mouse at 10 mg/kg, po measured upto 24 hrs by LC-MS/MS analysis; type: ADME, organism-based; details: in vivo
[29] = AUC in BALB/c mouse at 10 mg/kg, po measured upto 24 hrs by LC-MS/MS analysis; type: ADME, organism-based; set-up: dose 10 mg/kg, time < 24 hr, route oral; details: in vivo
[30] = Cmax in BALB/c mouse at 10 mg/kg, po measured upto 24 hrs by LC-MS/MS analysis; type: ADME, organism-based; set-up: dose 10 mg/kg, route oral; details: in vivo
[31] = Oral bioavailability in BALB/c mouse at 10 mg/kg measured upto 24 hrs by LC-MS/MS analysis; type: ADME, organism-based; details: in vivo
[32] = Toxicity in Harlan Foxn1 nude mouse xenografted with rat RIE cells transfected with KIF5B/RET assessed as lungs hemorrhaging at 10 to 60 mg/kg, po administered bid for 8 days; type: organism-based; details: in vivo, 192 h
[33] = Toxicity in Harlan Foxn1 nude mouse xenografted with rat RIE cells transfected with KIF5B/RET assessed as hypothermia at 10 to 60 mg/kg, po administered bid for 8 days; type: organism-based; details: in vivo, 192 h
[34] = Toxicity in Harlan Foxn1 nude mouse xenografted with rat RIE cells transfected with KIF5B/RET assessed as lungs hemorrhaging at 3 mg/kg, po administered bid for 8 days; type: organism-based; details: in vivo, 192 h
[35] = Toxicity in Harlan Foxn1 nude mouse xenografted with rat RIE cells transfected with KIF5B/RET assessed as hypothermia at 3 mg/kg, po administered bid for 8 days; type: organism-based; details: in vivo, 192 h

**Q.** Which IC50 (LC-2-ad) does the source give for COc1ccc(-c2cnn3c(N)c(-c4ccccc4)c(OCCCN(C)C)nc23)cc1OC here?
**A.** Its IC50 is 2.8 µM.

**Q.** What about the solubility at 24 h [1] of the same compound?
**A.** The solubility at 24 h was 88 µM (≈ 39.4 µg/mL).

**Q.** With COc1ccc(-c2cnn3c(N)c(-c4ccccc4)c(OC4CCNCC4)nc23)cc1OC as the compound, how does the IC50 (LC-2-ad) read?
**A.** Its IC50 is 2.7 µM.

**Q.** What about the solubility at 24 h [1] of the same compound?
**A.** Its solubility at 24 h is 47 µM (≈ 20.9 µg/mL).

**Q.** What does the source list for CN1C(C)(C)CC(Nc2nc3c(-c4ccc(C(=O)N5C[C@@H]6C[C@H]5CO6)cc4)cnn3c(N)c2-c2ccccc2)CC1(C)C?
**A.** Drug uptake [2]: Active; Drug uptake [3]: Active; bioavailability [4]: 64%; AUC at 24 h [5]: 6.8 µM·h; Cmax [6]: 880 nM; half-life [7]: 2.5 h; AUC at 24 h [8]: 2.6 µM·h; Cmax [9]: 1600 nM; half-life [10]: 1.8 h; clearance [11]: 54 mL/min/kg; Vd [12]: 7.8 L/kg; IC50 (LC-2-ad): 3.4 µM; Kp at 24 h [13]: 0.15; Kp at 24 h [14]: 0.13; IC50 [15]: 4.7 µM; IC50 ([16]; read-out: IC50): 2.8 µM; Activity (Rattus norvegicus [17]): Active; Activity (Rattus norvegicus [18]): Active; Activity (Rattus norvegicus [19]): Active; inhibition (Mus musculus [20]): Active; inhibition (Mus musculus [21]): inactive; Activity [22]: Non-Toxic

**Q.** What does the source list for COC(=O)Nc1ccc(-c2c(OC3CCN(C)CC3)nc3c(-c4ccc(OC)c(OC)c4)cnn3c2N)cc1?
**A.** IC50 (BaF3): 5 µM; IC50 (Bcr/Abl fusion protein): 5.1 µM

**Q.** With COc1ccc(-c2cnn3c(N)c(-c4ccccc4)c(NC4CCN(C)CC4)nc23)cc1OC as the compound, how does the IC50 (LC-2-ad) read?
**A.** Its IC50 is 5.5 µM.

**Q.** And the solubility at 24 h [1]?
**A.** Its solubility at 24 h is 85 µM (≈ 39 µg/mL).

**Q.** What does the source list for COC(=O)N1CCN(C(=O)c2ccc(-c3cnn4c(N)c(-c5ccccc5)c(NC5CC(C)(C)N(C)C(C)(C)C5)nc34)cc2)CC1?
**A.** IC50 (LC-2-ad): 1.3 µM; clearance [23]: 19 mL/min/kg; Vd [24]: 5.1 L/kg; half-life [25]: 3.7 h; AUC at 24 h [26]: 2.8 µM·h; Cmax [27]: 940 nM; half-life [28]: 3.7 h; AUC at 24 h [29]: 8.7 µM·h; Cmax [30]: 820 nM; bioavailability [31]: 62%; IC50 [15]: 7.5 µM; IC50 [16]: Not Active; Activity [32]: Toxic; Activity [33]: Toxic; Activity [34]: Non-Toxic; Activity [35]: Non-Toxic
